Read-outs that look alike come from different tables or passages of the source.
System: overweighed healthy volunteers
Conditions: for ΔGIR (difference in Glucose Infusion Rate): single 2 hours continuous intravenous infusion, 8 volunteers
Experimental: This trial is a Phase 1, exploratory, monocentric, placebo-controlled, double blinded, crossover study.
Two groups of 8 male, overweighed (BMI 25-30 kg/m^2) healthy volunteers were included in this study.
The first 8 volunteers were included in the low dose group.
The next 8 volunteers were included in the high dose group.
Euglycemic Hyperinsulinemic Clamp Technique • Insulin (Actrapid®, NovoNordisk, Copenhagen, Denmark) was perfused for 4 hours at a constant supra-physiological rate (1 mU·Kg-1·min-1) resulting in the complete inhibition of hepatic glucose production. • Blood glucose level was measured every 5 min and maintained for 4 hours at a constant physiological value (5 mmol/l) adapting the rate of infusion of a 20% glucose solution.
The primary endpoint (deltaGIR) was the difference between the GIR measured during the steady state ending the “investigational product” perfusion phase (GIRperfusion) and the GIR measured during the steady state ending the “basal” phase (GIRbasal). Delta GIR=GIRperfusion−GIRbasal

(pyr1)-Apelin-13
change in ΔGIR versus placebo (in words) (9 nmol/kg intravenous, p=0.06): non-significant increase
ΔGIR (difference in Glucose Infusion Rate) (9 nmol/kg, p=0.06 versus placebo): +2.21±0.54 mg/kg/min
insulin sensitivity versus placebo (in words) (30 nmol/kg intravenous, p=0.03): significant improvement
ΔGIR (difference in Glucose Infusion Rate) (30 nmol/kg, p=0.03 versus placebo): +1.72±0.47 mg/kg/min

From patent US10426818B2, “Method and pharmaceutical composition for use in the treatment of diabetes” (INSERM (INSITUT NATIONAL DE LA SANTE ET DE LA RECHERCHE …, priority 2015, dated 2019)
